How the values were obtained:
Assay type in all cases: cell-based, Chinese Hamster
[1] = test system: Cell Line 2 (CHO) expressing Antibody 2; assay: Cell culture performance, Cell Line 2 shake flask culture; conditions: shaker
Experimental: (§1) Four different recombinant Chinese Hamster Ovary (CHO) cell lines expressing four different recombinant glycoproteins were evaluated in either shaker flask culture, or 3 L laboratory scale bioreactors. Cell Line 1 was genetically engineered to express Antibody 1, Cell Line 2 was genetically engineered to express Antibody 2, Cell Line 3 was genetically engineered to express dual variable domain immunoglobulin 1 (DVD1) and Cell Line 4 was genetically engineered to express dual variable domain immunoglobulin 2 (DVD2).
DVD1 and DVD2 were immunoglobulins with two variable domains as documented previously. See Wu et al. (2007). Antibody 1 and Antibody 2 were both IgG1 glycoproteins. All four cell lines were of CHO DUX-B11 origin based on a dhfr (dihydrofolate reductase) expression system and cultured in chemically defined basal medias (CDBM), and fed periodically with chemically-defined feed media (CDFM). All media utilized throughout all of the experiments were chemically-defined, free of animal-component, and protein-free. […]
Viable cell density (VCD) and cell viability values were measured through trypan blue exclusion via Cedex automated cell counters (Roche Applied Science, Indianapolis, Ind.), glucose and lactate values were measured with a ABL-805 (Radiometer Medical, Denmark) blood gas analyzer. […] Osmolality was measured as needed on a Multi-Osmette 2430 osmometer (Precision Systems, Natick, Mass.).
(§2) Protein A Affinity Chromatography-Antibody titers were measured from crude cell culture harvests on a Poros ATM (Life Technologies, Carlsbad, Calif.) affinity column using an HPLC system operating with a low pH, step elution gradient with detection at 280 nm. […]
To further evaluate the impact of EGCG on acidic region variants, Antibody 2 and dual variable domain immunoglobulin 1 (DVD1) were examined. Antibody 2 was evaluated in a set of shaker and lab-scale bioreactor experiments with two feed amounts (100% and 50%) as unsupplemented control conditions. […]

[2] = test system: Cell Line 1 (CHO) expressing Antibody 1; assay: Cell culture performance (cell growth, viability, titer), Cell Line 1 shake flask fed-batch culture
Experimental: (§3) A recombinant Chinese Hamster Ovary (CHO) cell line (Cell Line 1) expressing a humanized monoclonal antibody (Antibody 1) was evaluated in 2 different cultures vessels (shaker flasks and 3 L laboratory-scale bioreactors). The cell line was of CHO DUX-B11 origin based on a DHFR (dihydrofolate reductase) expression system and cultured in a chemically defined basal media, and fed periodically with a chemically-defined feed media (CDFM). The media utilized throughout all of the experiments were chemically-defined, and both animal-component free, and protein-free. Each of the respective media were supplemented as needed with selected bioflavonoids to evaluate for their potential impact on the resulting acidic species profile. In preparation of the cultures, the cell lines were serially expanded through separate seed train inoculums to generate enough cells for inoculation. Process conditions utilized during the cultures were slightly different depending on the culture scale, but similar within each scale to the respective non-bioflavonoid supplemented control conditions. All bioflavonoids utilized were purchased from Sigma-Aldrich (St. Louis, Mo.).
Viable cell density (VCD) and cell viability values were measured through trypan blue exclusion via Cedex automated cell counters (Roche Applied Science, Indianapolis, Ind.), glucose and lactate values were measured with a ABL-805 (Radiometer Medical, Denmark) blood gas analyzer. Offline pH, dissolved oxygen (DO), and pCO2 measurements were performed as needed with an ABL-805 (Radiometer Medical, Denmark) blood gas analyzer. Osmolality was measured as needed on a Multi-Osmette 2430 osmometer (Precision Systems, Natick, Mass.).
Antibody titers were measured from crude cell culture harvests on a Poros A™ (Life Technologies, Carlsbad, Calif.) affinity column using an HPLC system operating with a low pH, step elution gradient with detection at 280 nm. Absolute concentrations were assigned with respect to reference standard calibration curves.
(§4) In this Example, EGCG was added into the feed (cell culture medium) at the concentration range of 5 mg/L (low), 20 mg/L (mid) and 50 mg/L (high) in a shaker experiment to determine the impact of EGCG on product quality of a humanized monoclonal antibody (Antibody 1). Detailed cell culture conditions are as described in Table 1.
However, it was not clear whether or not additional bioflavonoids would also have the same effects. To evaluate the impact of alternative bioflavonoids, fed-batch shake flask cultures were initiated with CDFM supplemented with 3 different concentrations of genistein, rutin, and naringin, in addition to EGCG. Cell growth, viability, as well as titers and acidic species variants were measured.
To evaluate the impact of other bioflavonoids, fed-batch shake flask cultures were initiated with CDFM supplemented with multiple concentrations of rutin. Cell growth, viability, as well as titers and acidic species variants were measured and shown in FIGS. 14 and 15, respectively.

[3] = test system: Cell Line 1 (CHO) expressing Antibody 1; assay: Aggregate content (SEC) of Antibody 1, Cell Line 1 shake flask fed-batch culture; conditions: shaker
Experimental: as §3
Protein A purified antibody samples from Cell Line 1 were diluted when necessary to 0.5-5 mg/mL in 1×PBS, and measured on a TSKgel G3000SWXL column (Tosoh Bioscience, South San Francisco, Calif.) using an isocratic gradient on an HPLC system with detection at 280 nm. High molecular weight (HMW), monomer, and low molecular weight (LMW) species were assigned and subsequently quantitated based on the chromatographic profile.
as §4

[4] = test system: Cell Line 2 (CHO) expressing Antibody 2; assay: Cell culture performance, Cell Line 2 lab-scale bioreactor culture; conditions: 0.1 g/L in 100% feed and equivalent in 50% feed
Experimental: as §1
Viable cell density (VCD) and cell viability values were measured through trypan blue exclusion via Cedex automated cell counters (Roche Applied Science, Indianapolis, Ind.), glucose and lactate values were measured with a ABL-805 (Radiometer Medical, Denmark) blood gas analyzer. Offline pH, dissolved oxygen (DO), and pCO2 (Dissolved carbon dioxide) measurements were performed as needed with an ABL-805 (Radiometer Medical, Denmark) blood gas analyzer. Osmolality was measured as needed on a Multi-Osmette 2430 osmometer (Precision Systems, Natick, Mass.).
as §2

[5] = test system: recombinant CHO cell lines; assay: Harvest titer / productivity summary across bioflavonoid supplemented cultures
Experimental: as §1
Protein A Affinity Chromatography-Antibody titers were measured from crude cell culture harvests on a Poros ATM (Life Technologies, Carlsbad, Calif.) affinity column using an HPLC system operating with a low pH, step elution gradient with detection at 280 nm. Absolute concentrations were assigned with respect to reference standard calibration curves.

[6] = concentrations above 0.1 g/L in CDFM, shake flask

O=C(O[C@@H]1Cc2c(O)cc(O)cc2O[C@@H]1c1cc(O)c(O)c(O)c1)c1cc(O)c(O)c(O)c1 [EGCG, epigallocatechin gallate]
impact on cell culture performance (cell growth, viability, titer) ([1]; 0.05 and 0.1 g/L in feed): no negative impact on cell culture performance
fold of the average titer of the unsupplemented control conditions ([1]; 0.1 g/L in 100% feed): 1.22 fold
fold of the average titer of the unsupplemented control conditions ([1]; equivalent of 0.1 g/L in 50% feed): 1.11 fold
cell growth vs control ([2]; 0.1 g/L in CDFM, shake flask): significantly lower than that of the control culture
cell viability vs control ([2]; 0.1 g/L in CDFM, shake flask, cultures proceeded until Day 12): comparable to the control
impact on cell culture performance (cell growth, viability, titer) ([2]; 5, 20 and 50 mg/L in feed, shaker): no impact on cell culture performance
cell growth [2, 6]: adversely impacted
culture duration reached before viability became too low [2, 6]: 8 days
harvest titer ([2]; higher levels of supplement, shake flask, Day 12 harvest): decreased titer
reduction of aggregation content, relative value ([3]; 5 mg/L in feed): 9%
reduction of aggregation content, relative value ([3]; 20 mg/L in feed): 23%
reduction of aggregation content, relative value ([3]; 50 mg/L in feed): 44%
impact on cell culture performance (cell growth, viability, titer) [4]: negligible impact on cell culture performance
drop in harvest titer ([5]; concentrations up to 0.1 g/L, supplemented cultures overall): at most 8%
recombinant protein productivity ([5]; supplementation up to 0.2 g/L): only nominally impacted

From US9416181B2, “Compositions for cell culture and methods of using the same” (AbbVie Inc., priority 2013, dated 2016)
